# Molecular target: Carbonic anhydrase 9 (Homo sapiens, UniProt Q16790)
row,Compound,Ki [nM]
1,CC(=O)OC[C@H]1O[C@@H](NS(N)(=O)=O)[C@H](OC(C)=O)[C@@H](OC(C)=O)[C@@H]1OC(C)=O,7.7
2,CC(=O)OC[C@H]1O[C@@H](NS(N)(=O)=O)C[C@@H](OC(C)=O)[C@@H]1OC(C)=O,13
3,CC(=O)OC[C@H]1O[C@@H](NS(N)(=O)=O)[C@@H](OC(C)=O)[C@@H](OC(C)=O)[C@@H]1OC(C)=O,5
4,C[C@H]1O[C@@H](NS(N)(=O)=O)[C@@H](O)[C@@H](O)[C@@H]1O,3140
5,CC(=O)OC[C@H]1O[C@@H](NS(N)(=O)=O)C[C@@H](OC(C)=O)[C@H]1OC(C)=O,16
6,CC(=O)OC[C@H]1O[C@@H](NS(N)(=O)=O)[C@H](OC(C)=O)[C@@H](OC(C)=O)[C@H]1OC(C)=O,7.2

# Source: ChEMBL document CHEMBL1806440, “N-β-glycosyl sulfamides are selective inhibitors of the cancer associated carbonic anhydrase isoforms IX and XII” (Bioorg Med Chem Lett, 2011)
